# Assay results taken from patent publication US20050009903A1, “CB2-selective cannabinoid analogues” (priority 2003, published 2005).
# Values joined by “and” are separate entries in the source; they are usually repeats but may differ in a detail not shown here. Identical values can stand only once. Like-named read-outs stand apart in the source and are kept apart here.
# Key:
# [1] = target: T1, CB1 receptor (Rattus norvegicus, UniProt P20272); test: CB1 assay: displacement of [3H]CP-55,940 from rat brain membrane preparation; assay type: binding
# T1 construct: from tissue; host or cells: rat whole brain, P2 membranes
# [2] = target: CB2 receptor (Homo sapiens, UniProt P34972); test: CB2 assay: displacement of [3H]CP-55,940 from cloned human CB2 receptor preparation (transfected HEK 293 cells); assay type: binding; set-up: expressed in transfected cells; conditions: for Ratio CB1/CB2: Table 1; for Ratio CB1/CB2 / Ratio CB17CB2: ratio of Ki values
# [3] = rat brain membranes, read-out: Ki at CB1 receptor
# [4] = cloned human CB2, read-out: Ki at CB2 receptor
# [5] = Ki at CB2 receptor, cloned human CB2
# [6] = Ki CB2, Table 1, mean ± SEM, cloned human CB2, [3H]CP 55,940
# [7] = Table 2, mean ± SEM, 3-(alkyl-1-naphthoyl)indoles, read-out: Ki CB1
# [8] = Table 2, mean ± SEM, 3-(alkyl-1-naphthoyl)indoles, read-out: Ki CB2
# T1 sequence (P20272 whole entry): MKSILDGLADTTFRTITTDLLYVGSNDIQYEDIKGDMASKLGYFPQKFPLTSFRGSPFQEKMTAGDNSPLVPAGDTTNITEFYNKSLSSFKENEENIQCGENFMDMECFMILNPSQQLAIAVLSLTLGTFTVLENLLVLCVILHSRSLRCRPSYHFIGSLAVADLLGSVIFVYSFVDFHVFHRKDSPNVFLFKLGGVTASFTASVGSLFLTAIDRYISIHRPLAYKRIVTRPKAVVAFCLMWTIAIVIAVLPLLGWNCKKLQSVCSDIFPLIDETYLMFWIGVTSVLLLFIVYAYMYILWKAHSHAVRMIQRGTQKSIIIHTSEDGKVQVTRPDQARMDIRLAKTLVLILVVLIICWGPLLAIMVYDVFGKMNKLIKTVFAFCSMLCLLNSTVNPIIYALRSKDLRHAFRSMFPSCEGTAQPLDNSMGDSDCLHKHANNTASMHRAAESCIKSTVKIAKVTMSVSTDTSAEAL
# Chain of CB2 receptor (P34972 whole entry): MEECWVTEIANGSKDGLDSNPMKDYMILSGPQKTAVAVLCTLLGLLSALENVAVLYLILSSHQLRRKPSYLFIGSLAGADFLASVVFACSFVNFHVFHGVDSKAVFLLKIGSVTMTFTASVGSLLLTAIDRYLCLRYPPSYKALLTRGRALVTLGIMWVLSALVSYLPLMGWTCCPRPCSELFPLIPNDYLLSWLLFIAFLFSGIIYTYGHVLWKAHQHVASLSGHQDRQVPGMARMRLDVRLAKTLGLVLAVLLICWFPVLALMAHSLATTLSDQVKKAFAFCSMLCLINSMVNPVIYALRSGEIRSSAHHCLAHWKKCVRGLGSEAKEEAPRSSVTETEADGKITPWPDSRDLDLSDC
smiles,measurement,setting,value
"CCCCCn1cc(C(=O)c2cccc3cc(OC)ccc23)c2ccccc21 [JWH-166, 1-Pentyl-3-(6-methoxy-1-naphthoyl)indole]",Ki,[1]; [3],44 ± 10 nM
same,Ki,[2]; [4],1.9 ± 0.1 nM
"CCCCCCC(C)(C)c1cc(OC)c2c(c1)OC(C)(C)[C@@H]1CC=C(CO)C[C@@H]21 [Compound 11f, 11-hydroxy-3-(1′,1′-dimethylheptyl)-1-methoxy-Δ^8-THC]",Ki,[1],14 ± 3 nM
same,Ki,[2]; [5],1 nM and 1.2 nM
same,Ratio CB1/CB2,[2],14
"CCCCCn1c(C)c(C(=O)c2cccc3ccc(C)cc23)c2ccccc21 [JWH-048, 2-Methyl-1-pentyl-3-(7-methyl-1-naphthoyl) indole]",Ratio CB17CB2,[2]; Table 2,22
"CCCCC(C)(C)c1cc(OC)c2c(c1)OC(C)(C)[C@@H]1CC=C(CO)C[C@@H]21 [Compound 11d, 1-Methoxy-3-(1′,1′-dimethylpentyl)-11-hydroxy-Δ^8-THC]",Ki,[1],40 ± 6 nM
same,Ki,[2]; [6],4.4 ± 0.3 nM
same,Ki,[2]; [5],40 ± 6 nM
same,Ratio CB1/CB2,[2],9.1
"CCCCCn1c(C)c(C(=O)c2ccc(CCC)c3ccccc23)c2ccccc21 [JWH-181, 2-Methyl-1-pentyl-3-(4-propyl-1-naphthoyl)indole]",Ki,[1]; [7],1.3 ± 0.1 nM
same,Ratio CB17CB2,[2]; Table 2,2.1
same,Ki,[2]; [4],0.62 ± 0.04 nM
"CCCCc1ccc(C(=O)c2c(C)n(CCC)c3ccccc23)c2ccccc12 [JWH-241, 2-Methyl-1-propyl-3-(4-butyl-1-naphthoyl)indole]",Ki,[1]; [3],147 ± 20 nM
same,Ratio CB17CB2,[2]; Table 2,3.0
same,Ki,[2]; [4],49 ± 7 nM
"CCCCCn1cc(C(=O)c2cccc3ccc(CC)cc23)c2ccccc21 [JWH-234, 1-Pentyl-3-(7-ethyl-1-naphthoyl)indole]",Ki,[1]; [3],8.4 ± 1.8 nM
same,Ratio CB17CB2,[2]; Table 2,2.2
same,Ki,[2]; [4],3.8 ± 0.6 nM
"CC(C)(C)c1ccc2c(c1)OC(C)(C)C1CC=C(CO)CC21 (stereo not drawn) [Compound 9a, 1-Deoxy-3-(1′,1′-dimethylethyl)-11-hydroxy-Δ^8-THC]",Ki,[1]; [3],270 ± 58 nM
same,Ki,[2]; [4],18.1 ± 1.8 nM
"CCCC(C)(C)c1ccc2c(c1)OC(C)(C)[C@@H]1CC=C(CO)C[C@@H]21 [Compound 9c, 1-Deoxy-3-(1′,1′-dimethylbutyl)-11-hydroxy-Δ^8-THC]",Ki,[1],84 ± 16 nM
same,Ki,[2]; [6],3.4 ± 0.5 nM
same,Ratio CB1/CB2,[2],25
"CCCn1cc(C(=O)c2cccc3cc(OC)ccc23)c2ccccc21 [JWH-163, 1-Propyl-3-(6-methoxy-1-naphthoyl)indole]",Ki,"[1]; Table 3, mean ± SEM, 3-(alkoxy-1-naphthoyl)indoles, the same values as Ki in nM, read-out: CB1 (receptor affinity)",2360 ± 215 nM
same,Ki,[2]; [4],138 ± 12 nM
CCCCCn1cc(C(=O)c2ccc(C)c3ccccc23)c2ccccc21 [JWH-122],Ki,[2]; [8],1.2 ± 1.2 nM
same,Ratio CB17CB2,[2]; Table 2,0.6
"CCCC(C)(C)c1cc(OC)c2c(c1)OC(C)(C)[C@@H]1CC=C(CO)C[C@@H]21 [Compound 11c, 1-Methoxy-3-(1′,1′-dimethylbutyl)-11-hydroxy-Δ^8-THC]",Ki,[1],347 ± 34 nM
same,Ki,[2]; [6],28 ± 1 nM
same,Ratio CB1/CB2,[2],12
"CCCCC(C)(C)c1cc(OC)c2c(c1)OC(C)(C)[C@@H]1CC=C(C)C[C@@H]21 [Compound 6d, 1-Methoxy-3-(1′,1′-dimethylpentyl)-Δ^8-THC]",Ki,[1],4000 ± 282 nM
same,Ki,[2]; [6],43 ± 3 nM
same,Ratio CB1/CB2,[2],93
"CCCn1cc(C(=O)c2cccc3ccc(CC)cc23)c2ccccc21 [JWH-235, 1-Propyl-3-(7-ethyl-1-naphthoyl)indole]",Ki,[1]; [3],338 ± 34 nM
same,Ratio CB17CB2,[2]; Table 2,2.7
same,Ki,[2]; [4],123 ± 34 nM
"CCCc1ccc(C(=O)c2cn(CCC)c3ccccc23)c2ccccc12 [JWH-180, 1-Propyl-3-(4-propyl-1-naphthoyl)indole]",Ki,[1]; [7],26 ± 2 nM
same,Ki,[2]; [8],9.6 ± 2 nM
same,Ratio CB17CB2,[2]; Table 2,2.7
CCCCCn1cc(C(=O)c2cccc3ccccc23)c2ccccc21 [JWH-018],Ratio CB17CB2,[2]; Table 2,3.3
CCCCCn1c(C)c(C(=O)c2ccc(C)c3ccccc23)c2ccccc21 [JWH-149],Ki,[2]; [8],0.73 ± 0.03 nM
same,Ratio CB17CB2,[2]; Table 2,6.8
"CCCn1c(C)c(C(=O)c2cccc3ccc(C)cc23)c2ccccc21 [JWH-046, 2-methyl-1-propyl-3-(7-methyl-1-naphthoyl)indole]",Ratio CB17CB2,[2]; Table 2,21
CCCn1cc(C(=O)c2cccc3ccccc23)c2ccccc21 [JWH-072],Ratio CB17CB2,[2]; Table 2,6.2
